From paper PMC7316388 (European journal of cell biology, 2010)

Biological target: CREB (Mus musculus, UniProt Q01147)
Assay: chromatin immunoprecipitation, CREB binding to c-fos promoter
Format: cell-based
Conditions: 100 μM compound with lipofectamine, 24 h, NIH3T3 cells

CREB, sequence (Q01147 whole entry): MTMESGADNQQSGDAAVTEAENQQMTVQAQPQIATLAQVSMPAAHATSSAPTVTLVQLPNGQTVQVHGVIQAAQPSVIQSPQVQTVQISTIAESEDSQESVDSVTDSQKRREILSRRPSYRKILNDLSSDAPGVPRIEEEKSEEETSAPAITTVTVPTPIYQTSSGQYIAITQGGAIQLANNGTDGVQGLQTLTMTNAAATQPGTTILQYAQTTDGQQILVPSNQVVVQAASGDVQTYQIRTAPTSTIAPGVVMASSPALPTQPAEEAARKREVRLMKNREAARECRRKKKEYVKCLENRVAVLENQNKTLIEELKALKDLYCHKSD

O=S(=O)(O)c1cc[c]([Sb](=[O])([OH])[OH])cc1 [NSC13746]
% reduction in CREB DNA binding at 100 μM: 30%
